Experimental data as given in patent US12595281B2, “Indodicarbocyanine phosphoramidites with bathochromically shifted absorption and emission, and tunable hydrophobicity” (The Government of the United States of America, as …, priority 2022, dated 2026).

assay: Methanol content to elute DNA-dye sequences from reverse phase HPLC column; format: physicochemical; details: average over sequences HJA-D and HJAcomp containing the dye
Experimental: Desalted oligo solutions were then analyzed by liquid chromatography-mass spectrometry (LCMS, see Characterization below for more detail) to confirm the presence of correct sequence in the crude product. Samples containing the confirmed dye-labeled DNA sequences were then pooled and purified by preparatory scale reverse phase HPLC (2707 Autosampler, 2545 Quaternary Gradient Module, 2998 Photodiode Array Detector, and Fraction Collector III, Waters, Inc, Milford, MA) using an XBridge OST C18 OBD 19×50 mm column (Part No. 186008962, Waters, Inc, Milford, MA) with a gradient of increasing methanol in 0.1 M TEAA (aq.). For Cy5-hex, Cy5-Peg and Cy5-tBu containing sequences, LC fractions were concentrated to dryness directly from the 0.1 M TEAA buffer/methanol solution. […] Dried LC fractions were reconstituted in small volumes of water (Optima Grade), to keep concentration sufficiently high (25-50 μM) to visualize and separate low percentage impurities on LCMS. Purified fractions were combined, concentrated, then re-analyzed via LCMS for a final purity assessment.
Due to the overall poor solubility of the parent cyanine dye derivatives in water, the octanol-water partition coefficient (log P) could not be determined by the traditional “shake flask” method. In lieu of this approach, modelling software developed by Advanced Chemistry Development, Inc. was used to predict the partition coefficient and solubility in water (log S0), as shown in Table 2. As an additional means of comparison with direct relevance to the final intended utility of these oligos, the average concentration of methanol required to elute the DNA sequences containing the given dye from the reverse phase HPLC column was determined (the greater the methanol content required to elute, the more hydrophobic the dye). The DNA-dye sequences were utilized for this instead of the free dyes because they are capable of eluting at lower methanol content, but the hydrophobic character of the dye still dominates the elution profile. […] This is in close agreement with the relative “stickiness” of the DNA-dye sequences towards […] stationary phase.

| SMILES | Av. % MeOH for DNA-dye elution [%] |
| --- | --- |
| COc1ccc(C(OCCCN2C(=CC=CC=CC3=[N+](CCCO)c4ccc(C(C)(C)C)cc4C3(C)C)C(C)(C)c3cc(C(C)(C)C)ccc32)(c2ccccc2)c2ccccc2)cc1.[I-] [Cy5-tBu, 1-(3-hydroxypropyl)-1′-(3-monomethoxytritylpropyl)-5,5′-bis(tert-butyl)-3,3,3′,3′-tetramethyl-dicarboindocyanine iodide] | 41 |
| COc1ccc(C(OCCCN2C(=CC=CC=CC3=[N+](CCCO)c4ccc(Cl)cc4C3(C)C)C(C)(C)c3cc(Cl)ccc32)(c2ccccc2)c2ccccc2)cc1.[I-] [Cy5-Cl, 5,5′-dichloro-1-(3-hydroxypropyl)-1′-(3-monomethoxytritylpropyl)-tetramethyl-dicarboindocyanine iodide] | 30.5 |
| CCCCCCOc1ccc2c(c1)C(C)(C)C(=CC=CC=CC1=[N+](CCCO)c3ccc(OCCCCCC)cc3C1(C)C)N2CCCOC(c1ccccc1)(c1ccccc1)c1ccc(OC)cc1.[I-] [Cy5-hex, 1-(3-hydroxypropyl)-1′-(3-monomethoxytritylpropyl)-5,5′-bis(n-hexyloxy)-3,3,3′,3′-tetramethyl-dicarboindocyanine iodide] | 51 |
| COCCOCCOCCOc1ccc2c(c1)C(C)(C)C(=CC=CC=CC1=[N+](CCCO)c3ccc(OCCOCCOCCOC)cc3C1(C)C)N2CCCOC(c1ccccc1)(c1ccccc1)c1ccc(OC)cc1.[I-] [Cy5-Peg, 1-(3-hydroxypropyl)-1′-(3-monomethoxytritylpropyl)-5,5′-bis{2-[2-(2-methoxyethoxy)ethoxy]ethoxy}-3,3,3′,3′-tetramethyl-dicarboindocyanine iodide] | 31.5 |
